# Counter-ions that a name gives are not always drawn.
# Columns and labels:
# mouse [1] = test: Toxicity in the mouse (Litchfield and Wilcoxon); format: in vivo
# Experimental: (§1) (6) Toxicity in the mouse
# (§2) Toxicity was determined according to Litchfield and Wilcoxon (J. Pharmacol. exp. Ther. 97 (1949), page 399) in the mouse. In comparison, the values with the known substance aescin sodium salt were determined. Comparative tests with 0.1% solution, of venous and optical compatibility on the rabbit yielded similar results.
# [2] = test system: carrageenin oedema in the rat paw; test: Suppression of carrageenin oedema in the rat paw (Siegmund); format: in vivo; conditions: 3 h p.a.
# Experimental: (7) Suppression of carrageenin oedema in the rat paw
# The inflammation-reducing and anti-oedematous effects on carrageenin and serotonin oedemas in the rat paw were studied according to Siegmund et al (Proc. Soc. exp. Biol. Med. 95 (1957), page 729). The values are given as percentages, based on the values obtained in control tests using a dummy procedure. In this way, the antiphlogistic activity of the substances according to the invention was tested.
# [3] = test system: isolated guinea-pig heart; test: Relative coronary blood-flow change in isolated guinea-pig heart (Langendorff)
# Experimental: (4) Relative coronary blood-flow change in an isolated guinea-pig heart.
# The tests were carried out according to the method of Langendorff (Pflugers Archiv. 61 (1895), page 219).
# In Table 5, the change in coronary blood flow after administration of various quantities of the test substance is compared with that after administration of the known compounds heptaminol and Aescin sodium salt.
# perfused rabbit ear = test: Blood-flow change in perfused isolated rabbit ear, vaso-dilator activity (Ringer-Norfenefrin solution)
# Experimental: (3) Blood-flow change in an isolated rabbit ear
# The tests were carried out according to Krakow-Pissemski (Pflugers Archiv 151 (1913), page 583 and 156 (1914), page 426). In Table 5a the estimated values of the vaso-constrictor activity in Ringer solutions of varying concentrations are given and in Table 5b values for vasodilatory activity in Ringer-Norfenefrin solutions of varying concentrations are given. As a comparison, the values obtained with the known preparation aescin sodium are given.
# [4] = test system: permeability of the capillaries; test: Histamine rash test (modified Halpern), capillary permeability; format: in vivo; conditions: 30 minutes before histamine
# Experimental: The test according to Halpern (Presse medicale 65 (1949), page 949) was used in modified form. The suppressive effect of the compounds according to the invention on the permeability of the capillaries was tested. The blue coloration induced by intravenous administration of trypan blue at two intracutaneous histamine injection points per animal, (trypan blue administered 2 minutes before the histamine), was estimated according to the following scale of values:
# indications of blue coloration
# clear blue coloration =4
# stong blue coloration =6
# The preceding evaluation was made from the combined effect at the two injection points.
# The test substances were administered i.p. 30 minutes before the histamine injection.
# [5] = Toxicity in the mouse (Litchfield and Wilcoxon); format: in vivo; conditions: mouse, in vivo
# Experimental: as §1, §2
# mouse [6] = test: Hot-plate test (Chen and Beckman); format: in vivo
# Experimental: This test was performed on the mouse, according to Chen and Beckman (see Science 113 (1951), page 631). 50 mg/kg of the compound No. 2 (cf. formula sheet) which has been administered per os increase the reaction time of the animals by 70%.
# isolated portal vein = test: Isolated rat's portal vein (Berti), increase in tonus
# Experimental: (2) Isolated rat's portal vein
# The tests on the rat's portal vein, an organ with its own rhythm, were performed according to the method of Berti et al (Arch. int. Pharmacodyn. 184 (1970), page 328). In Table 4, the increase in tonus at various adrenalin concentrations is given in milligrams. As a comparison, the values for the known substance heptaminol (=6-amino-2-methylheptane-2-ol) are also given.
# [7] = test system: writhing movements in the mouse; test: Writhing test (Winter); format: in vivo
# From the text: The analgesic activity of the compounds according to the invention were studied by the method of Winter et al (Proc. Soc. exp. Biol. Med, 111 (1962), page 544), in which the suppression of writhing movements in the mouse was observed.
# isolated vein sections = test: Isolated vein section (modified Furchgott), contraction in adrenalin; design: species or system rabbit; conditions: in words
# Experimental: (§3) (1) Isolated vein and aorta sections
# (§4) The tests were carried out on isolated vein and aorta sections from rabbits in accordance with the modified method of Furchgott et al (J. Pharmacol, exp. Ther. 108 (1953), page 129). The contraction of the vein section in adrenalin and of the aorta section in noradrenalin, after administration of 10^-6 g/ml of the test compound was defined to have the base value of 100.
# isolated aorta sections = test: Isolated aorta section (modified Furchgott), contraction in noradrenalin; design: species or system rabbit; conditions: in words
# Experimental: as §3, §4
# [8] = 100 μg (first figure where two are given)
SMILES,Suppression of carrageenin oedema in the paw (antiphlogistic activity) ([2]; 100 mg/kg p.o.),"Relative change in coronary blood flow [3, 8]","Relative change in blood flow, vaso-dilator activity (perfused rabbit ear; 3 × 10^-5 g/ml)","Relative change in blood flow, vaso-dilator activity (perfused rabbit ear; 10^-5 g/ml)","Relative change in blood flow, vaso-dilator activity (perfused rabbit ear; 10^-6 g/ml)","Relative change in blood flow, vaso-dilator activity (perfused rabbit ear; 10^-7 g/ml)","Histamine rash test, blue coloration score (0 = none, 2 = indications, 4 = clear, 6 = strong) ([4]; 1.0 mg/kg i.p.)","Histamine rash test, blue coloration score (0 = none, 2 = indications, 4 = clear, 6 = strong) ([4]; 3.0 mg/kg i.p.)",LD50 ([5]; ip),LD50 ([5]; po),"Increase in tonus, isolated rat's portal vein (isolated portal vein; 10^-4 g/ml)","Increase in tonus, isolated rat's portal vein (isolated portal vein; 10^-5 g/ml)",Suppression of writhing movements ([7]; 50 mg/kg p.o.),further results
"CCCCCC(C)NCc1c(C)cc(C)cc1C (single isomer, unassigned) [compound 4]",14%,+125,+31,+104,+40,+4,3.1,1.7,–,–,–,–,–,"Toxicity in the mouse (mouse [1]; i.p.): 50 to 100 mg/kg; Toxicity in the mouse (mouse [1]; i.v.): 12,4 mg/kg"
"CCCCCC(C)NCc1c(C)cc(C)cc1C (stereo not shown) [Serial No. 2, 2-(2,4,6-Trimethylbenzyl)-aminoheptane hydrochloride]",46%,+120,–,+73,+31,+3,2.6,1.7,114 mg/kg,940 mg/kg,+185 milligrams,+106 milligrams,53%,"LD50 ([5]; iv): 11.7 mg/kg; Suppression of carrageenin oedema in the paw (antiphlogistic activity) ([2]; 25 mg/kg p.o.): 53%; Suppression of carrageenin oedema in the paw (antiphlogistic activity) ([2]; 63 mg/kg p.o.): 52%; Increase in reaction time of the animals (mouse [6]; 50 mg/kg per os): 70%; Relative change in blood flow, vaso-dilator activity (perfused rabbit ear; 10^-4 g/ml): +112; Histamine rash test, blue coloration score (0 = none, 2 = indications, 4 = clear, 6 = strong) ([4]; 0.1 mg/kg i.p.): 3.5; Histamine rash test, blue coloration score (0 = none, 2 = indications, 4 = clear, 6 = strong) ([4]; 0.3 mg/kg i.p.): 3.4; Histamine rash test, blue coloration score (0 = none, 2 = indications, 4 = clear, 6 = strong) ([4]; 10.0 mg/kg i.p.): 1.9; Suppression of writhing movements ([7]; 40 mg/kg p.o.): 32%; Suppression of writhing movements ([7]; 63 mg/kg p.o.): 51%; Suppression of writhing movements ([7]; 100 mg/kg p.o.): 80%"
CCCCCCC(C)NCc1c(C)cc(C)cc1C (stereo not shown) [Serial No. 26],39%,–,–,+58,+29,+7,1.8,1.2,50 to 100 mg/kg,–,–,–,45%,"Relative change in coronary blood flow ([3]; 10 μg (first figure where two are given)): +28; Relative change in coronary blood flow ([3]; 30 μg (first figure where two are given)): +57; Vasotonic activity compared with aescin sodium (vein, Table 2) (isolated vein sections): stronger vasotonic activity than the comparison substance aescin sodium"
CCC(C)C(C)NCc1c(C)cc(C)cc1C (stereo not shown) [Serial No. 27],–,–,+12,–,+4,–,3.6,1.9,100 to 250 mg/kg,2400 mg/kg,+250 milligrams,+19 milligrams,–,"Vasotonic activity compared with aescin sodium (aorta, Table 3) (isolated aorta sections): stronger vasotonic activity than the comparison substance aescin sodium; Increase in tonus, isolated rat's portal vein (isolated portal vein; 10^-6 g/ml): -9 milligrams"
"Cc1c(N(C)C)c(=O)n(-c2ccccc2)n1C [aminophenazone, reference compound]",–,–,–,–,–,–,–,–,–,–,–,–,–,"ED50 (mouse [6]; Mus musculus, comparison substance, read-out: Effective dose of 50% (ED 50), hot-plate test): 84 mg/kg"
